Data published in ChEMBL document CHEMBL5465560, “Selectivity Literature for EUbOPEN Chemogenomic Library” (2024).

How the values were obtained:
[1] = target: Casein kinase I isoform gamma-2 (Homo sapiens) (UniProt P78368); experiment: Selectivity interaction (KinomeScan (DiscoverX)) EUB0001049a CSNK1G2; conditions: at 1 µM
[2] = target: SRSF protein kinase 1 (Homo sapiens, UniProt Q96SB4); experiment: Selectivity interaction (Kinase panel (literature)) EUB0001199aCl SRPK1; conditions: at 1 µM
[3] = target: Platelet-derived growth factor receptor alpha (Homo sapiens, UniProt P16234); experiment: Selectivity interaction (KinomeScan (DiscoverX)) EUB0000666a PDGFRA; conditions: at 10 µM
Sequence of Platelet-derived growth factor receptor alpha (P16234 whole entry): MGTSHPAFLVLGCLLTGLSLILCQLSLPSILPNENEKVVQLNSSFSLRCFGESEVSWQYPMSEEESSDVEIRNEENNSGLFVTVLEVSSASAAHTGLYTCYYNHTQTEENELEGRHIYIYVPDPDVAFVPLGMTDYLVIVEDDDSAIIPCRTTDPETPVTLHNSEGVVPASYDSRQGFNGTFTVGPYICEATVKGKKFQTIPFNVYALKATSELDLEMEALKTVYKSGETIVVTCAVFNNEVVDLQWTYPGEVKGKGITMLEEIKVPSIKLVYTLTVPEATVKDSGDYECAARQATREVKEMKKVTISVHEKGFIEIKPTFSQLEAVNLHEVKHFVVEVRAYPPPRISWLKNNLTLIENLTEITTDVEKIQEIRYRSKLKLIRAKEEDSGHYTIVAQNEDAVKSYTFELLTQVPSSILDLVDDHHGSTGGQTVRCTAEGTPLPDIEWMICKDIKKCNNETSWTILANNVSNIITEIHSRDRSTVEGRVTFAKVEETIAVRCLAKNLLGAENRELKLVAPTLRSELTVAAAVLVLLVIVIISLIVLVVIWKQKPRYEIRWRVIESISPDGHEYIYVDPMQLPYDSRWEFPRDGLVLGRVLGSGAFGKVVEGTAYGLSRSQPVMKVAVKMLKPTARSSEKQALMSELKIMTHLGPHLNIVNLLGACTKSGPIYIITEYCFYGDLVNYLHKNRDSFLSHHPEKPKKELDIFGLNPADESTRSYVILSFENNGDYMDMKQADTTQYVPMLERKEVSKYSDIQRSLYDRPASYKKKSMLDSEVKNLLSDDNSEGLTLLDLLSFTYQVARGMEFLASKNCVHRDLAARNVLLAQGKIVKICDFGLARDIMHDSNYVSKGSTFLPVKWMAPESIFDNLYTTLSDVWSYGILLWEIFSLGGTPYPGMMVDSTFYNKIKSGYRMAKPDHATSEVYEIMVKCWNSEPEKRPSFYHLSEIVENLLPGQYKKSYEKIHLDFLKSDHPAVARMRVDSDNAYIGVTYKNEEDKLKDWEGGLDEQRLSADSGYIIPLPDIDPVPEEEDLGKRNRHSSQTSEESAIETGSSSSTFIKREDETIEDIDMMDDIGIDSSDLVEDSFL

[4] = target: T1, Alpha-1B adrenergic receptor (Homo sapiens) (UniProt P35368); experiment: Selectivity interaction (GPCR panel (PDSP screen)) EUB0001079a ADRA1B; conditions: at 10 µM
T1 sequence (whole entry): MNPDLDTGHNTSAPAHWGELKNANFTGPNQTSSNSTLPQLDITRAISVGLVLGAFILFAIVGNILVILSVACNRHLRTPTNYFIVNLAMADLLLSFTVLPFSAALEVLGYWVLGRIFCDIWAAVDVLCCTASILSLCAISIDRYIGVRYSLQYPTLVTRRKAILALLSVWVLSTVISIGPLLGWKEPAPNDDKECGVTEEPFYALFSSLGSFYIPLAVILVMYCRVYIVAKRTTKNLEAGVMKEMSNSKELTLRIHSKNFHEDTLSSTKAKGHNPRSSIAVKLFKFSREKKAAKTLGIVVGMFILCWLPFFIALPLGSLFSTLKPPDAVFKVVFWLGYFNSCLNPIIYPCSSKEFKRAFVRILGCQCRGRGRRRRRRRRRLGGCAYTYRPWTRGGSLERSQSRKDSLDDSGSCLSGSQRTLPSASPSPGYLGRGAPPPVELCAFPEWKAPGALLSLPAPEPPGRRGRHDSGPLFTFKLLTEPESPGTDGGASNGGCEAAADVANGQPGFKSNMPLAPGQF

[5] = target: Phosphatidylinositol 3-kinase catalytic subunit type 3 (Homo sapiens, UniProt Q8NEB9); experiment: Selectivity interaction (Kinase panel (KiNativ target engagement assay in Jurkat cells)) EUB0001635a PIK3C3; type: cell-based; conditions: Selectivity number of off-targets 0.0, Selectivity number of targets 233.0, Source Knowledge https://www.sciencedirect.com/science/article/pii/S2451945619300674?via%3Dihub, at 1 µM
Sequence of Phosphatidylinositol 3-kinase catalytic subunit type 3 (Q8NEB9 whole entry): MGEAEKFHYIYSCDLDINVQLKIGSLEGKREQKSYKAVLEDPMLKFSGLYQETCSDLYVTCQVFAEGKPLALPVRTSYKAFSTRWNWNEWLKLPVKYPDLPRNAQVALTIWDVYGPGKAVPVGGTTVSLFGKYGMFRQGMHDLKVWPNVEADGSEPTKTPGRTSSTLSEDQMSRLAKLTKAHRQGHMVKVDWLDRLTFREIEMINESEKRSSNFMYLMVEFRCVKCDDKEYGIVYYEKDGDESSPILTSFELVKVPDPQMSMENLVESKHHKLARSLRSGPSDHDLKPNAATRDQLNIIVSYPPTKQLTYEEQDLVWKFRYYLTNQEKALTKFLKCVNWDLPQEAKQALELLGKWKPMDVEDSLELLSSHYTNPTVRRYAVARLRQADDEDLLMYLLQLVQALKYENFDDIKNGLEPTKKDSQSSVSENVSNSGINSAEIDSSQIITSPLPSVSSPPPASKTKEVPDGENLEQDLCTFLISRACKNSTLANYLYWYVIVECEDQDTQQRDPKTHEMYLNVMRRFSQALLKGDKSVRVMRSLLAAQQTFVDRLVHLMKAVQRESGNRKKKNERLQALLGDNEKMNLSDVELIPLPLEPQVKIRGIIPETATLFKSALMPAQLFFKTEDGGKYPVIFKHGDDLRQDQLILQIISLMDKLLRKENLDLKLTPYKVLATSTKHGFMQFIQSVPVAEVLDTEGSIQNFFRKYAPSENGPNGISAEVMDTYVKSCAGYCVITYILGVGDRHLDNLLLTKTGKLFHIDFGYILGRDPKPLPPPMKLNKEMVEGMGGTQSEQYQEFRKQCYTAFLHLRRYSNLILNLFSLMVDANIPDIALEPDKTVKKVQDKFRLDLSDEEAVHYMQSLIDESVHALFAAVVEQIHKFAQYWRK

[6] = target: T2, Serine/threonine-protein kinase Chk1 (Homo sapiens) (UniProt O14757); experiment: Selectivity interaction (ActivX KiNativ screen (kinase selectivity in THP-1 cell lysates)) EUB0000639a CHEK1; type: subcellular; conditions: lysate
T2 sequence (whole entry): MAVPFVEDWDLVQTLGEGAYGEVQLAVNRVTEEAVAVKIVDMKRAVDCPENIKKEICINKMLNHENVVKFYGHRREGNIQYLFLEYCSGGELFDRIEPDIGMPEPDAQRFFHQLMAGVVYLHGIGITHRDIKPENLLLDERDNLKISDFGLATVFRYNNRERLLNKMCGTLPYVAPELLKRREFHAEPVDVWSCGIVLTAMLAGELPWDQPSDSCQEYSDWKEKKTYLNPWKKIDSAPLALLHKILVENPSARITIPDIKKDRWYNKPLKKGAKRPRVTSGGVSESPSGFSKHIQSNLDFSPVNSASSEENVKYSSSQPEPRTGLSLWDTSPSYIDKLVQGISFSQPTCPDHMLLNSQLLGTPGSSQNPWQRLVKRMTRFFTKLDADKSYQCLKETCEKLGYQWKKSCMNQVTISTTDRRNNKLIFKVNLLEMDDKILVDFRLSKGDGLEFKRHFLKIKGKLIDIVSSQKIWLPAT

[7] = target: T3, Serine/threonine-protein kinase BRSK2 (Homo sapiens) (UniProt Q8IWQ3); experiment: Selectivity interaction (KinomeScan (DiscoverX)) EUB0000618a BRSK2; conditions: at 10 µM
T3 sequence (whole entry): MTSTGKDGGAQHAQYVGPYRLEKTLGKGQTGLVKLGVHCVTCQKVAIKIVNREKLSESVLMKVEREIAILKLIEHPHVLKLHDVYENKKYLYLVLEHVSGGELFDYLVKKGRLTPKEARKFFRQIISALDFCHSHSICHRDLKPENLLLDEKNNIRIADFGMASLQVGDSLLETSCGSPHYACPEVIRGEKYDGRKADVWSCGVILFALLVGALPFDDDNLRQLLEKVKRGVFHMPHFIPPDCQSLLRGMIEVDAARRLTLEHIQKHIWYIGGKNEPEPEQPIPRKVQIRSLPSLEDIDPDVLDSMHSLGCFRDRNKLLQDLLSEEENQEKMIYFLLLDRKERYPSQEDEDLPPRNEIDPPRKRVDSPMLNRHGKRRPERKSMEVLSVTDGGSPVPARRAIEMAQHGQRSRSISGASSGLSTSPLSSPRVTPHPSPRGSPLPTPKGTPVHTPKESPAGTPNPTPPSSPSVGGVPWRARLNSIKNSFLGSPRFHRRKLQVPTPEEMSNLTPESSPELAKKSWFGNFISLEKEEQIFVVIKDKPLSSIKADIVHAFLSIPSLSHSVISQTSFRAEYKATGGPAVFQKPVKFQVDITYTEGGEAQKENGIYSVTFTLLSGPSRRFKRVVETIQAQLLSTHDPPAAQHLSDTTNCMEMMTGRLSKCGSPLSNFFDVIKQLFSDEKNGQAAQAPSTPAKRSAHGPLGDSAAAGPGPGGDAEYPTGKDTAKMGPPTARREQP

[8] = target: T4, Dual specificity tyrosine-phosphorylation-regulated kinase 4 (Homo sapiens) (UniProt Q9NR20); experiment: Selectivity interaction (SelectScreen profiling (Invitrogen)) EUB0000607a DYRK4; conditions: at 2 µM
T4 sequence (whole entry): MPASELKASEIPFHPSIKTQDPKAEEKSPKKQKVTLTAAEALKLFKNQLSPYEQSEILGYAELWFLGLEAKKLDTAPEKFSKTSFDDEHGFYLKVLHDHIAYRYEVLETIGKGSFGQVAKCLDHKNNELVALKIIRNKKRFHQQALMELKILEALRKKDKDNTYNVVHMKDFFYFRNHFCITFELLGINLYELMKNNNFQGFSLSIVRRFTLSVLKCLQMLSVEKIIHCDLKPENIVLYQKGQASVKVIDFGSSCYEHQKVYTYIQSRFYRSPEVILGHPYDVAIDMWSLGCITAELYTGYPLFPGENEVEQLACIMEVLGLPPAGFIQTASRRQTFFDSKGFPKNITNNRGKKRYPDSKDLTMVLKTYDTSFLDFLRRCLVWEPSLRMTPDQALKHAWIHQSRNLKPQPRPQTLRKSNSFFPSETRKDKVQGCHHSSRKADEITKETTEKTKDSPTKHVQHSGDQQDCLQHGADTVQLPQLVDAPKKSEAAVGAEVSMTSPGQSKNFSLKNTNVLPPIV

Sequence of SRSF protein kinase 1 (Q96SB4 whole entry): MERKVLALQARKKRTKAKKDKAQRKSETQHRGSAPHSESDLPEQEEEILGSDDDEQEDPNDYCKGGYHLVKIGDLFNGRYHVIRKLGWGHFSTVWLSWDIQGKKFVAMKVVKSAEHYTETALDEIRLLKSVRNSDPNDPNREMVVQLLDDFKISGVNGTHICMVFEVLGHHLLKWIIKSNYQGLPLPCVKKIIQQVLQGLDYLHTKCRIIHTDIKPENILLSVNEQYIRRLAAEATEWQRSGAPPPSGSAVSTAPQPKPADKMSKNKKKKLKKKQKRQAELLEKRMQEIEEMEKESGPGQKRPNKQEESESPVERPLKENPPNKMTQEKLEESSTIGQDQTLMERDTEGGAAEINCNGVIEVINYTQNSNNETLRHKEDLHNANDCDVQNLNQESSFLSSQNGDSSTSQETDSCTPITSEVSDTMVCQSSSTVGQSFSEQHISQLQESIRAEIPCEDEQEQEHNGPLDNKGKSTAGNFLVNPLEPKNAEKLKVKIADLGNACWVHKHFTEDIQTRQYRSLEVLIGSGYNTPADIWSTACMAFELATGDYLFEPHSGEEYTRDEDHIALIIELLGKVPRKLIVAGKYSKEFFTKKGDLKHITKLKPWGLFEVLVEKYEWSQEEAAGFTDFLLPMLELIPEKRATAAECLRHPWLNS
Sequence of Casein kinase I isoform gamma-2 (Homo sapiens) (P78368 whole entry, looked up, canonical isoform): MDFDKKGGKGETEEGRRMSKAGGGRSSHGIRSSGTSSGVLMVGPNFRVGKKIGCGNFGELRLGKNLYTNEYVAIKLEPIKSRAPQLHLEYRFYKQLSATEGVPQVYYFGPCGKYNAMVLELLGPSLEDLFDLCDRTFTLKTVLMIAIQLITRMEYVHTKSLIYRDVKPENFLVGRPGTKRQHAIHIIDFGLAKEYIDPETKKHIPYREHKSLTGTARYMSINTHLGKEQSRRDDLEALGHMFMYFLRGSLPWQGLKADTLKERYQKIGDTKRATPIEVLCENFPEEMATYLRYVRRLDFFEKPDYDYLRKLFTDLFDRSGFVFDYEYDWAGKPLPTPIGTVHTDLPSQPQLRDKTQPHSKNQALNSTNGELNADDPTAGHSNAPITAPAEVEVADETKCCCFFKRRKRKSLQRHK

COc1cc(Nc2nc(C)cc(-c3cnn4nc(OC)ccc34)n2)cc(C(F)(F)F)c1
% of control [1]: 97%

CN1Cc2nccc(-c3cn(C)nc3-c3ccc(F)cc3)c2C1=O
% of inhibition [2]: 8%

O=C(NOC[C@H](O)CO)c1ccc(F)c(F)c1Nc1ccc(I)cc1F
% of control [3]: 96%

Nc1cnc(N2CCc3cc(S(=O)(=O)Nc4c(F)cc(Cl)cc4F)cc(N4CCCC4=O)c32)nc1 [TP-020n]
% of inhibition [4]: 4.68%

C=CC(=O)Nc1ccc(C(=O)Nc2[nH]nc3c2CN(C(=O)N[C@H](CN(C)C)c2ccccc2)C3(C)C)cc1
% of engagement [5]: -19.8%

CC[C@@H]1[C@H](F)C(=O)N[C@@H]1COc1nccc2cc(C(N)=O)c(OC)cc12 [ZIMLOVISERTIB]
% of inhibition ([6]; at 0.01 µM): -7.6%
% of inhibition ([6]; at 0.04 µM): 11.8%
% of inhibition ([6]; at 0.2 µM): -8.5%
% of inhibition ([6]; at 1 µM): 0.6%
% of inhibition ([6]; at 5 µM): -18.5%

O[C@H]1CC[C@H](Nc2ncc3nc(Nc4c(F)cc(F)cc4F)n([C@H]4CCOC4)c3n2)CC1
% of control [7]: 99%

CNC(=O)Nc1ccc(-c2nc(N3CC4CCC(C3)O4)c3cnn(C4CCC5(CC4)OCCO5)c3n2)cc1
% of inhibition [8]: 4%
